# Values of other authors as cited in patent US6348502B1, “Formulations for the treatment of gastro-oesophageal reflux” (Reckitt & Colman Products Limited, priority 1998, dated 2002).
# Assays:
# [1] = system: acetic-acid induced gastric ulcers
# gastric acid secretion = conditions: rats
# [2] = system: topical injury by noxious agents such as ethanol; conditions: white rabbits, administered at the gastro-oesophageal junction via cannulae
# [3] = system: capsaicin-sensitive neurones; conditions: rats; stimulation of capsaicin-sensitive neurones
smiles,measurement,setting,value
"COc1cc(CNC(=O)CCCC/C=C/C(C)C)ccc1O [capsaicin, (E)-(N)-[(4-hydroxy-3-methoxphenyl)-methyl]-8-methyl-6-nonenamide]",protection of the gastric mucosa against experimental injury,[1]; acetic-acid induced gastric ulceration in rats,protects the gastric mucosa against experimental injury
same,healing of acetic-acid induced gastric ulcers,"[1]; rats, introduced directly into an ex vivo chamber",promotes the healing
same,healing of acetic-acid induced gastric ulcers after prior administration of cimetidine,"[1]; rats, prior administration of cimetidine",blunted
same,effect on gastric acid secretion,gastric acid secretion,no effect
same,mucosal protection against topical injury,[2],provides mucosal protection
same,duodenal bicarbonate secretion,[3],increase duodenal bicarbonate secretion
